How the values were obtained:
[1] = tested on: filamentous fungi; assay: Anti-microbial activity in vitro (filamentous fungi); format: cell-based; conditions: concentration of 500 µg/mℓ
[2] = Solubility to solvent; format: physicochemical
[3] = tested on: yeast; assay: Anti-microbial activity in vitro (yeast); format: cell-based; conditions: concentration of 500 µg/mℓ
[4] = tested on: bacteria; assay: Anti-microbial activity in vitro (bacteria); format: cell-based; conditions: concentration of 500 µg/mℓ
[5] = Acute toxicity in mice (intraperitoneal); conditions: mouse, in vivo, ip; JCL/ICR male mice, 5 weeks; administration into the peritoneal cavity; mortality after two weeks; read-out: LD₅₀

CC1=C(C(=O)O)COC1=O [F-0368]
anti-microbial activity in vitro [1]: did not indicate its anti-microbial activity
Solubility to Solvent ([2]; acetone): Readily soluble
Solubility to Solvent ([2]; benzene): Non-soluble
Solubility to Solvent ([2]; chloroform): Non-soluble
Solubility to Solvent ([2]; ethanol): Readily soluble
Solubility to Solvent ([2]; ethyl acetate): Soluble
Solubility to Solvent ([2]; hexane): Non-soluble
Solubility to Solvent ([2]; methanol): Readily soluble
Solubility to Solvent ([2]; water): Soluble
anti-microbial activity in vitro [3]: did not indicate its anti-microbial activity
anti-microbial activity in vitro [4]: did not indicate its anti-microbial activity
LD50 at 336 h [5]: ~200 mg/kg

From patent EP0332216A1 (priority 1988, dated 1989)
